Experimental data as given in patent publication US12403144B2, “HECT E3 ligase inhibitors and uses thereof” (IFOM FONDAZIONE ISTITUTO FIRC DI ONCOLOGIA MOLECOLARE, priority 2019, dated 2025).
Counter-ions that a name gives are not always drawn.

What was measured:
[1] = tested on: LNCaP cells; test: CellTiter-Glo Luminescent Cell Viability Assay, LNCaP; format: cell-based; settings: Homo sapiens, 48 hours incubation, mean of at least two determinations, read-out: LNCaP IC50 μM (antiproliferative activity)
From the text: (§1) CellTiter-Glo® Luminescent Cell Viability Assay (Promega, Catalog number: G7571) is a homogeneous method of determining the number of viable cells in culture based on quantitation of the present ATP, which indicates the presence of metabolically active cells. The homogeneous assay procedure involves addition of a single reagent (CellTiter-Glo® Reagent) directly to the cells, which leads to cell lysis and generation of a luminescent signal proportional to the amount of the ATP and the number of cells present in culture. The assay relies on the properties of a proprietary thermostable luciferase (Ultra-Glo® recombinant luciferase), which generates a luminescent signal.
(§2) DU145 cells (obtained from CLS Cell Lines Service GmbH item 300168) were grown in DMEM (Sigma Aldrich catalog number D6171-500 ml) supplemented with 10% Fetal Bovine Serum (Euroclone, catalog number. ECS0180L), 2 mM L-Glutamine (Euroclone catalog number LOBE17605F) and 100 U/ml penicillin-[…] streptomycin (EuroClone, ECB3001L). LNCaP cells (obtained from CLS Cell Lines Service GmbH item 300265) were grown in RPMI1640 (Lonza catalog number BE12-167F) supplemented with 10% Fetal Bovine Serum (Euroclone, catalog number. ECS0180L), 2 mM L-Glutamine (Euroclone catalog number LOBE17605F) and 100 U/ml penicillin-[…] streptomycin (EuroClone, ECB3001 L).
(§3) To determine the antiproliferative activity of the compounds, 3000 DU145 cells and 5000 LNCap cells were seeded in 96 multiwell plate (Sigma catalog number CLS9102) per well. 24 hours after seeding, the cells were incubated for 48 hours with different concentrations of the inhibitors (from 50 to 0 μM with a 3-fold dilution) dissolved in DMSO. After 48 hours, a volume of CellTiter-Glo® Reagent equal to the volume of cell culture medium was added. The content was mixed for 2 min to induce cell lysis. The luminescence was measured and recorded with Tecan Infinite 200 multimode plate reader after further 10 min at room temperature in order to obtain a stable luminescent signal.
(§4) The IC50 was calculated using GraphPad Software from the recorded luminescent signal.

[2] = tested on: DU145 cells; test: CellTiter-Glo Luminescent Cell Viability Assay, DU145; format: cell-based; settings: Homo sapiens, DU-145; 48 hours incubation; mean of at least two determinations; read-out: DU145 IC50 μM (antiproliferative activity)
From the text: as §1, §2, §3, §4

[3] = target: T1, His-MPB tagged HECT of HECW2 (E3 ligase) (Homo sapiens, UniProt Q9P2P5); test: In vitro ubiquitination assay TR-FRET based, HECW2; format: biochemical; settings: read-out: percentage of inhibition (HECW2)
T1 construct: using His-MPB tagged HECT of HECW2 (E3 ligase) instead of untagged HECT of NEDD4 wild-type (WT) (E3 ligase); made in house
T1 sequence (Q9P2P5 1237-1572 limits assumed): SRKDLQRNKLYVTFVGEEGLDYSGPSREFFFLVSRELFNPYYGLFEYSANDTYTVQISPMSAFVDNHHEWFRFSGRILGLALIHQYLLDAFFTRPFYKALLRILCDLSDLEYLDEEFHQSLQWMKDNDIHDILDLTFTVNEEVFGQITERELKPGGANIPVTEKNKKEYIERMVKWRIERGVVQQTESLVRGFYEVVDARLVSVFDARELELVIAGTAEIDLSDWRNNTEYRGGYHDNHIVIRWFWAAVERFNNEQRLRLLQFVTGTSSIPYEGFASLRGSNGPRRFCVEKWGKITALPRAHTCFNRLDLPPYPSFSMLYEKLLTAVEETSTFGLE
Protocol: (§5) To determine the selectivity of identified NEDD4 inhibitors, it was quantitatively measured the self-ubiquitination process of the E3 HECT ligase belonging to NEDD4 family such as NEDD4L, HECW2 and ITCH in presence or not of some compounds such as 5, 9, 12, 29, 42, 45, 56, 58, 61, 77, 78, 85 and 94 employing TR-FRET based assays.
The assay was performed as described above in the paragraph titled “In vitro ubiquitination assay TR-FRET based” under the heading “2.1. NEDD4 UBIQUITINATION ASSAYS” using His-MPB tagged HECT of HECW2 (E3 ligase) instead of untagged HECT of NEDD4 wild-type (WT) (E3 ligase). In this case, final E1, E2 and E3 concentrations in the assay buffer (Tris-HCl pH 7.6 25 mM, NaCl 100 mM, MgCl2 5 mM and Tween 0.01%) were 30, 350 and 62.5 nanomolars, respectively. His-MPB tagged HECT of HECW2 (E3 ligase) enzyme was produced and purified as reported in E. Maspero et al. Methods Mol Biol. 1449:153-60 (2016) and in E. Maspero et al. EMBO Reports 12:342-349(2011).

[4] = target: T2, untagged HECT of NEDD4L (E3 ligase) (Homo sapiens, UniProt Q96PU5); test: In vitro ubiquitination assay TR-FRET based, NEDD4L; format: biochemical; settings: read-out: percentage of inhibition (NEDD4L)
T2 construct: using untagged HECT of NEDD4L (E3 ligase) instead of untagged HECT of NEDD4 wild-type (WT) (E3 ligase); made in house; host or cells: bacteria (printed for the NEDD4L HECT of the western-blot assay; not repeated here)
T2 sequence (Q96PU5 594-975 limits assumed): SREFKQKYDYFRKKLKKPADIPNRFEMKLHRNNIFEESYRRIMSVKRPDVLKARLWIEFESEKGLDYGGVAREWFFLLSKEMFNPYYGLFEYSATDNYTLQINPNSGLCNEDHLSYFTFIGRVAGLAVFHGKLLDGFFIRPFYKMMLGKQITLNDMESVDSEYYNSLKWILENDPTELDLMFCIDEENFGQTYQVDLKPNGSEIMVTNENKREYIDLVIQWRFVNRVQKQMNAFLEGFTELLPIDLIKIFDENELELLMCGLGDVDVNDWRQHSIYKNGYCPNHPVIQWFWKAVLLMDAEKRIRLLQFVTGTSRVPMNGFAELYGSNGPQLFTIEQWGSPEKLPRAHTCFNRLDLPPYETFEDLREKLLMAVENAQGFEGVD
Protocol: as §5
The assay was performed as described above in the paragraph titled “In vitro ubiquitination assay TR-FRET based” under the heading “2.1. NEDD4 UBIQUITINATION ASSAYS” using untagged HECT of NEDD4L (E3 ligase) instead of untagged HECT of NEDD4 wild-type (WT) (E3 ligase). In this case, final E1, E2 and E3 concentrations in the assay buffer (Tris-HCl pH 7.6 25 mM, NaCl 100 mM, MgCl2 5 mM and Tween 0.01%) were 30, 350 and 31.3 nanomolars, respectively. Untagged HECT NEDD4L (E3 ligase) enzyme was produced and purified as reported in E. Maspero et al. Methods Mol Biol. 1449:153-60 (2016) and in E. Maspero et al. EMBO Reports 12:342-349(2011).

Compound | IC50 [1] | IC50 [2] | inhibition at 11 µM [3] | inhibition at 11 µM [4]
CCOC(=O)/C=C/CNCCCCN1c2ccccc2C(=O)N(C)c2ccc(Cl)cc21 [Compound 29, Ethyl (E)-4-{[4-(7-chloro-10-methyl-11-oxo-10,11-dihydro-5H-dibenzo[b,e][1,4]diazepin-5-yl)butyl]amino}but-2-enoate maleate] | – | – | < 15% | ≤ 20%
CCOC(=O)/C=C/CNCCCCN1c2cc(Cl)ccc2C(=O)N(C)c2ccccc21 [Compound 42, Ethyl (E)-4-{[4-(3-chloro-10-methyl-11-oxo-10,11-dihydro-5H-dibenzo[b,e][1,4]diazepin-5-yl)butyl]amino}but-2-enoate maleate] | 6.49 µM | 9.18 µM | < 15% | < 15%
CCOC(=O)/C=C/CNCCCCN1c2ccccc2C(=O)N(Cc2ccccc2)c2ccc(Cl)cc21 [Compound 45, Ethyl (E)-4-{[4-(10-benzyl-7-chloro-11-oxo-10,11-dihydro-5H-dibenzo[b,e][1,4]diazepin-5-yl)butyl]amino}but-2-enoate maleate] | 5.69 µM | 4.97 µM | < 20% | ≤ 20%
CCOC(=O)/C=C/CNCCCCN1c2cc(Cl)ccc2C(=O)N(Cc2ccccc2)c2ccccc21 [Compound 56, Ethyl (E)-4-((4-(10-benzyl-3-chloro-11-oxo-10,11-dihydro-5H-dibenzo[b,e][1,4]diazepin-5-yl)butyl)amino)but-2-enoate maleate] | – | – | < 15% | ≤ 20%
COC(=O)/C=C/CN(C)CCCCN1c2cc(Cl)ccc2C(=O)N(Cc2ccccc2)c2ccccc21 [Compound 58, Methyl (E)-4-{[4-(10-benzyl-3-chloro-11-oxo-10,11-dihydro-5H-dibenzo[b,e][1,4]diazepin-5-yl)butyl](methyl)amino}but-2-enoate maleate] | – | – | < 5% | < 5%
CN(C/C=C/C#N)CCCCN1c2cc(Cl)ccc2C(=O)N(Cc2ccccc2)c2ccccc21 [Compound 61, (E)-4-{[4-(10-benzyl-3-chloro-11-oxo-10,11-dihydro-5H-dibenzo[b,e][1,4]diazepin-5-yl)butyl](methyl)amino}but-2-enenitrile maleate] | – | – | < 5% | < 5%
CN(C/C=C/C(=O)OCCOCCOCCOCCNC(=O)CCCC[C@@H]1SC[C@@H]2NC(=O)N[C@@H]21)CCCCN1c2ccccc2CCc2ccc(Cl)cc21 [Compound 94, 2-[2-(2-{2-[5-((3aS,4S,6aR)-2-Oxo-hexahydro-thieno[3,4-d]imidazol-4-yl)-pentanoylamino]-ethoxy}-ethoxy)-ethoxy]-ethyl (E)-4-{[4-(3-chloro-10,11-dihydro-dibenzo[b,f]azepin-5-yl)-butyl]-methyl-amino}but-2-enoate] | – | – | < 15% | < 15%

Now from value to compound:

IC50 [1] | IC50 [2] | inhibition at 11 µM [3] | inhibition at 11 µM [4] | Compound
10.9 µM | 7.68 µM | < 15% | < 15% | CCOC(=O)/C=C/CCNCCCN1c2ccccc2CCc2ccc(Cl)cc21 [Compound 5, Ethyl (E)-5-[3-(3-chloro-10,11-dihydro-5H-dibenzo[b,f]azepin-5-yl)propylamino]pent-2-enoate maleate]
– | – | < 5% | < 5% | CON(C)C(=O)/C=C/CN(C)CCCCN1c2ccccc2CCc2ccc(Cl)cc21 [Compound 9, (E)-4-[4-(3-Chloro-10,11-dihydro-5H-dibenzo[b,f]azepin-5-yl)butyl-methyl-amino]-N-methoxy-N-methyl-but-2-enamide]
6.67 µM | 6.81 µM | < 5% | < 15% | CCOC(=O)/C=C/CNCCCCN1c2ccccc2CCc2ccc(Cl)cc21.O=C(O)/C=C\C(=O)O [Compound 12, Ethyl (E)-4-[4-(3-chloro-10,11-dihydro-5H-dibenzo[b,f]azepin-5-yl)butylamino]but-2-enoate maleate]
– | – | < 15% | < 15% | C#CCON(C)C(=O)/C=C/CN(C)CCCCN1c2ccccc2CCc2ccc(Cl)cc21 [Compound 77, (E)-4-[4-(3-Chloro-10,11-dihydro-5H-dibenzo[b,f]azepin-5-yl)butyl-methyl-amino]-N-methyl-N-prop-2-ynoxy-but-2-enamide maleate]
– | – | < 5% | < 5% | CONC(=O)/C=C/CNCCCCN1c2ccccc2CCc2ccc(Cl)cc21 [Compound 78, (E)-4-[4-(3-Chloro-10,11-dihydro-5H-dibenzo[b,f]azepin-5-yl)butylamino]-N-methoxy-but-2-enamide maleate]
16.3 µM | 11.3 µM | < 5% | < 5% | CONC(=O)/C=C/CN(C)CCCCN1c2ccccc2CCc2ccc(Cl)cc21 [Compound 85, (E)-4-[4-(3-Chloro-10,11-dihydro-5H-dibenzo[b,f]azepin-5-yl)butyl-methyl-amino]-N-methoxy-but-2-enamide maleate]
